Measured values as given in ChEMBL document CHEMBL1151433, “National and regional assessment of antimicrobial resistance among community-acquired respiratory tract pathogens identified in a 2005-2006 U.S. Faropenem surveillance study” (2007).
In brackets after ≈: the same amount, converted by molar mass.

How the values were obtained:
Streptococcus pneumoniae [1] = experiment: Antibacterial activity against Streptococcus pneumoniae ATCC 49619 isolated from respiratory tract infected patients after 20 to 24 hrs by broth microdilution method; assay type: functional
Streptococcus pneumoniae [2] = experiment: Antibacterial activity against penicillin-susceptible Streptococcus pneumoniae ATCC 49619 isolated from respiratory tract infected patients after 20 to 24 hrs by broth microdilution method; assay type: functional
Streptococcus pneumoniae [3] = experiment: Antibacterial activity against penicillin-intermediate Streptococcus pneumoniae ATCC 49619 isolated from respiratory tract infected patients after 20 to 24 hrs by broth microdilution method; assay type: functional
Streptococcus pneumoniae [4] = experiment: Antibacterial activity against penicillin-resistant Streptococcus pneumoniae ATCC 49619 isolated from respiratory tract infected patients after 20 to 24 hrs by broth microdilution method; assay type: functional
Streptococcus pneumoniae [5] = experiment: Antibacterial activity against Streptococcus pneumoniae ATCC 49619 isolated from respiratory tract infected patients assessed as susceptible isolates after 20 to 24 hrs by broth microdilution method; assay type: functional
Streptococcus pneumoniae [6] = experiment: Antibacterial activity against penicillin-susceptible Streptococcus pneumoniae ATCC 49619 isolated from respiratory tract infected patients assessed as susceptible isolates after 20 to 24 hrs by broth microdilution method; assay type: functional
Streptococcus pneumoniae [7] = experiment: Antibacterial activity against penicillin-intermediate Streptococcus pneumoniae ATCC 49619 isolated from respiratory tract infected patients assessed as susceptible isolates after 20 to 24 hrs by broth microdilution method; assay type: functional
Streptococcus pneumoniae [8] = experiment: Antibacterial activity against penicillin-resistant Streptococcus pneumoniae ATCC 49619 isolated from respiratory tract infected patients assessed as susceptible isolates after 20 to 24 hrs by broth microdilution method; assay type: functional
Streptococcus pneumoniae [9] = experiment: Antibacterial activity against Streptococcus pneumoniae ATCC 49619 isolated from respiratory tract infected patients assessed as resistant isolates after 20 to 24 hrs by broth microdilution method; assay type: functional
Streptococcus pneumoniae [10] = experiment: Antibacterial activity against penicillin-susceptible Streptococcus pneumoniae ATCC 49619 isolated from respiratory tract infected patients assessed as resistant isolates after 20 to 24 hrs by broth microdilution method; assay type: functional
Streptococcus pneumoniae [11] = experiment: Antibacterial activity against penicillin-intermediate Streptococcus pneumoniae ATCC 49619 isolated from respiratory tract infected patients assessed as resistant isolates after 20 to 24 hrs by broth microdilution method; assay type: functional
Streptococcus pneumoniae [12] = experiment: Antibacterial activity against penicillin-resistant Streptococcus pneumoniae ATCC 49619 isolated from respiratory tract infected patients assessed as resistant isolates after 20 to 24 hrs by broth microdilution method; assay type: functional
Haemophilus influenzae [13] = experiment: Antibacterial activity against Haemophilus influenzae […] isolated from respiratory tract infected patients after 20 to 24 hrs by broth microdilution method; assay type: functional; conditions: ATCC 49247
Haemophilus influenzae [14] = experiment: Antibacterial activity against beta lactamase-positive Haemophilus influenzae […] isolated from respiratory tract infected patients after 20 to 24 hrs by broth microdilution method; assay type: functional; conditions: ATCC 49247
Haemophilus influenzae [15] = experiment: Antibacterial activity against beta lactamase-negative Haemophilus influenzae […] isolated from respiratory tract infected patients after 20 to 24 hrs by broth microdilution method; assay type: functional; conditions: ATCC 49247
Haemophilus influenzae [16] = experiment: Antibacterial activity against Haemophilus influenzae […] isolated from respiratory tract infected patients assessed as susceptible isolates after 20 to 24 hrs by broth microdilution method; assay type: functional, ATCC 49247
Haemophilus influenzae [17] = experiment: Antibacterial activity against beta lactamase-positive Haemophilus influenzae […] isolated from respiratory tract infected patients assessed as susceptible isolates after 20 to 24 hrs by broth microdilution method; assay type: functional, ATCC 49247
Haemophilus influenzae [18] = experiment: Antibacterial activity against beta lactamase-negative Haemophilus influenzae […] isolated from respiratory tract infected patients assessed as susceptible isolates after 20 to 24 hrs by broth microdilution method; assay type: functional
Haemophilus influenzae [19] = experiment: Antibacterial activity against Haemophilus influenzae […] isolated from respiratory tract infected patients assessed as resistant isolates after 20 to 24 hrs by broth microdilution method; assay type: functional, ATCC 49247
Haemophilus influenzae [20] = experiment: Antibacterial activity against beta lactamase-positive Haemophilus influenzae […] isolated from respiratory tract infected patients assessed as resistant isolates after 20 to 24 hrs by broth microdilution method; assay type: functional, ATCC 49247
Haemophilus influenzae [21] = experiment: Antibacterial activity against beta lactamase-negative Haemophilus influenzae […] isolated from respiratory tract infected patients assessed as resistant isolates after 20 to 24 hrs by broth microdilution method; assay type: functional, ATCC 49247
Moraxella catarrhalis = experiment: Antibacterial activity against Moraxella catarrhalis isolated from respiratory tract infected patients after 20 to 24 hrs by broth microdilution method; assay type: functional

SMILES: CO/N=C(\C(=O)N[C@@H]1C(=O)N2C(C(=O)O)=C(COC(N)=O)CS[C@H]12)c1ccco1 [CEFUROXIME]
- MIC50 (Streptococcus pneumoniae [1]): ≤ 0.5 µg/mL
- MIC90 (Streptococcus pneumoniae [1]): 8 µg/mL (≈ 18.9 µM)
- MIC50 (Streptococcus pneumoniae [2]): ≤ 0.5 µg/mL
- MIC90 (Streptococcus pneumoniae [2]): ≤ 0.5 µg/mL
- MIC50 (Streptococcus pneumoniae [3]): ≤ 0.5 µg/mL
- MIC90 (Streptococcus pneumoniae [3]): 4 µg/mL (≈ 9.43 µM)
- MIC50 (Streptococcus pneumoniae [4]): 8 µg/mL (≈ 18.9 µM)
- MIC90 (Streptococcus pneumoniae [4]): 16 µg/mL (≈ 37.7 µM)
- Activity (Streptococcus pneumoniae [5]): 78.2%
- Activity (Streptococcus pneumoniae [6]): 99.9%
- Activity (Streptococcus pneumoniae [7]): 74%
- Activity (Streptococcus pneumoniae [8]): 0%
- Activity (Streptococcus pneumoniae [9]): 18.7%
- Activity (Streptococcus pneumoniae [10]): 0%
- Activity (Streptococcus pneumoniae [11]): 12.7%
- Activity (Streptococcus pneumoniae [12]): 99.2%
- MIC50 (Haemophilus influenzae [13]): 1 µg/mL (≈ 2.36 µM)
- MIC90 (Haemophilus influenzae [13]): 2 µg/mL (≈ 4.71 µM)
- MIC50 (Haemophilus influenzae [14]): 1 µg/mL (≈ 2.36 µM)
- MIC90 (Haemophilus influenzae [14]): 2 µg/mL (≈ 4.71 µM)
- MIC50 (Haemophilus influenzae [15]): 1 µg/mL (≈ 2.36 µM)
- MIC90 (Haemophilus influenzae [15]): 2 µg/mL (≈ 4.71 µM)
- Activity (Haemophilus influenzae [16]): 97.6%
- Activity (Haemophilus influenzae [17]): 96.3%
- Activity (Haemophilus influenzae [18]): 98%
- Activity (Haemophilus influenzae [19]): 0.3%
- Activity (Haemophilus influenzae [20]): 0.7%
- Activity (Haemophilus influenzae [21]): 0.2%
- MIC50 (Moraxella catarrhalis): 1 µg/mL (≈ 2.36 µM)
- MIC90 (Moraxella catarrhalis): 2 µg/mL (≈ 4.71 µM)

SMILES: CC[C@H]1OC(=O)[C@H](C)C(=O)[C@H](C)[C@@H](O[C@@H]2O[C@H](C)C[C@H](N(C)C)[C@H]2O)[C@](C)(OC)C[C@@H](C)C(=O)[C@H](C)[C@H]2N(CCCCn3cnc(-c4cccnc4)c3)C(=O)O[C@]12C [TELITHROMYCIN]
- MIC50 (Streptococcus pneumoniae [1]): ≤ 0.12 µg/mL
- MIC90 (Streptococcus pneumoniae [1]): 0.5 µg/mL (≈ 0.616 µM)
- MIC50 (Streptococcus pneumoniae [2]): ≤ 0.12 µg/mL
- MIC90 (Streptococcus pneumoniae [2]): ≤ 0.12 µg/mL
- MIC50 (Streptococcus pneumoniae [3]): ≤ 0.12 µg/mL
- MIC90 (Streptococcus pneumoniae [3]): 0.5 µg/mL (≈ 0.616 µM)
- MIC50 (Streptococcus pneumoniae [4]): 0.5 µg/mL (≈ 0.616 µM)
- MIC90 (Streptococcus pneumoniae [4]): 1 µg/mL (≈ 1.23 µM)
- Activity (Streptococcus pneumoniae [5]): 99.4%
- Activity (Streptococcus pneumoniae [6]): 99.8%
- Activity (Streptococcus pneumoniae [7]): 100%
- Activity (Streptococcus pneumoniae [8]): 97.2%
- Activity (Streptococcus pneumoniae [9]): 0.1%
- Activity (Streptococcus pneumoniae [10]): 0.1%
- Activity (Streptococcus pneumoniae [11]): 0%
- Activity (Streptococcus pneumoniae [12]): 0%
- MIC50 (Haemophilus influenzae [13]): 2 µg/mL (≈ 2.46 µM)
- MIC90 (Haemophilus influenzae [13]): 4 µg/mL (≈ 4.93 µM)
- MIC50 (Haemophilus influenzae [14]): 2 µg/mL (≈ 2.46 µM)
- MIC90 (Haemophilus influenzae [14]): 4 µg/mL (≈ 4.93 µM)
- MIC50 (Haemophilus influenzae [15]): 2 µg/mL (≈ 2.46 µM)
- MIC90 (Haemophilus influenzae [15]): 4 µg/mL (≈ 4.93 µM)
- Activity (Haemophilus influenzae [16]): 96.4%
- Activity (Haemophilus influenzae [17]): 97%
- Activity (Haemophilus influenzae [18]): 96.1%
- Activity (Haemophilus influenzae [19]): 0.7%
- Activity (Haemophilus influenzae [20]): 0.8%
- Activity (Haemophilus influenzae [21]): 0.7%
- MIC50 (Moraxella catarrhalis): ≤ 0.12 µg/mL
- MIC90 (Moraxella catarrhalis): ≤ 0.12 µg/mL
